According to patent US6399629B1, “Efflux pump inhibitors” (priority 1998, dated 2002):

Test system: Pseudomonas aeruginosa PAM1001
Test: checkerboard assay (broth microdilution): levofloxacin MIC in presence of efflux pump inhibitor
Assay type: cell-based
Outline: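 Checkerboard broth microdilution in Mueller Hinton Broth against P. aeruginosa PAM1001 (5×10^5 CFU/mL, early-log inoculum), levofloxacin and efflux pump inhibitor (up to 40 μg/mL) diluted along crossing axes. Plates incubated 20 h at 35° C; growth read at 650 nm and visually. Potentiation scored as reduced levofloxacin MIC.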

Row | Compound | Levofloxacin MIC Against P. aerugiuosa PAM1001 in Presence of Efflux Pump Inhibitor (EPI), Minimum Inhibitory Concentration (EPI Conc. 0 μg/mL) | Levofloxacin MIC Against P. aerugiuosa PAM1001 in Presence of Efflux Pump Inhibitor (EPI), Minimum Inhibitory Concentration (EPI Conc. 0.625 μg/mL) | Levofloxacin MIC Against P. aerugiuosa PAM1001 in Presence of Efflux Pump Inhibitor (EPI), Minimum Inhibitory Concentration (EPI Conc. 1.25 μg/mL) | Levofloxacin MIC Against P. aerugiuosa PAM1001 in Presence of Efflux Pump Inhibitor (EPI), Minimum Inhibitory Concentration (EPI Conc. 2.5 μg/mL) | Levofloxacin MIC Against P. aerugiuosa PAM1001 in Presence of Efflux Pump Inhibitor (EPI), Minimum Inhibitory Concentration (EPI Conc. 5 μg/ mL) | Levofloxacin MIC Against P. aerugiuosa PAM1001 in Presence of Efflux Pump Inhibitor (EPI), Minimum Inhibitory Concentration (EPI Conc. 10 μg/mL) | Levofloxacin MIC Against P. aerugiuosa PAM1001 in Presence of Efflux Pump Inhibitor (EPI), Minimum Inhibitory Concentration (EPI Conc. 20 μg/mL) | Levofloxacin MIC Against P. aerugiuosa PAM1001 in Presence of Efflux Pump Inhibitor (EPI), Minimum Inhibitory Concentration (EPI Conc. 40 μg/mL)
1 | NCC(=O)N[C@H]1CN[C@H](C(=O)N[C@H](CCc2ccccc2)CSc2ccc3ccccc3n2)C1 [Compound M55, (2S,4R)-4-(2-Aminoacetamido)-N-[(1R)-3-phenyl-1-[(2-quinolythio)methyl]propyl]-2-pyrrolidinecarobxamide] | 4 µg/mL | 4 µg/mL | 4 µg/mL | 4 µg/mL | 4 µg/mL | 2 µg/mL | 1 µg/mL | 0.06 µg/mL
2 | CC(C)C[C@H](COc1cnc2ccccc2c1)NC(=O)[C@H]1C[C@H](CN)CN1 [Compound M59, (2R,4R)-4-(Aminomethyl)-N-[(1R)-3-methyl-1-[(3-quiolyloxy)methyl]butyl]-2-pyrrolidinecarboxamide] | 4 µg/mL | 4 µg/mL | 4 µg/mL | 4 µg/mL | 4 µg/mL | 1 µg/mL | 0.5 µg/mL | 0.125 µg/mL
3 | Cc1ccc2ncc(C(=O)N[C@@H](CCc3ccccc3)CNC(=O)[C@H]3C[C@H](CN)CN3)cc2c1 [Compound M62, (2R,4R)-4-(Aminomethyl)-N-[(2S)-2-(6-methyl-3-quinolylcarboxamido)-4-phenylbutyl]-2-pyrrolidinecaroxamide] | 4 µg/mL | 4 µg/mL | 4 µg/mL | 4 µg/mL | 4 µg/mL | 2 µg/mL | 0.5 µg/mL | 0.015 µg/mL
4 | Cc1ccc2ncc(C(=O)NC[C@@H](CCc3ccccc3)NC(=O)[C@H]3C[C@H](CN)CN3)cc2c1 [Compound M63, (2R,4R)-4-(Aminomethyl)-N-[(1R)-3-phenyl-1-[(6-methyl-3-quinolylcarboxamido)methyl]propyl]-2-pyrrolidinecaroxamide] | 4 µg/mL | 4 µg/mL | 4 µg/mL | 4 µg/mL | 2 µg/mL | 1 µg/mL | 0.008 µg/mL | 0.015 µg/mL
5 | Cc1cc2nc(C(O)[C@@H](CCc3ccccc3)NC(=O)[C@@H]3C[C@@H](NC(=O)CN)CN3)oc2cc1C (some centres unmarked) [Compound M67] | 4 µg/mL | 4 µg/mL | 4 µg/mL | 4 µg/mL | 4 µg/mL | 0.5 µg/mL | 0.03 µg/mL | –
6 | NC[C@@H]1CN[C@@H](CO[C@@H](CCc2ccccc2)C(=O)Nc2cnc3ccccc3c2)C1 [Compound M69, (2R,4R)-4-(Aminomethyl)-2-[((1S)-3-phenyl-1-(3-quiolylcarbamoyl)propyl)oxymethyl]pyrrolidine] | 4 µg/mL | 4 µg/mL | 2 µg/mL | 2 µg/mL | 0.125 µg/mL | 0.125 µg/mL | 0.125 µg/mL | 0.06 µg/mL
7 | NC[C@@H]1CN[C@@H](CO[C@H](CCc2ccccc2)C(=O)Nc2cnc3ccccc3c2)C1 [Compound M70, (2R,4R)-4-(Amiomethyl)-2-[((1R)-3-phenyl-1-(3-quiolylcarbamoyl)propyl)oxymethyl]pyrrolidie] | 4 µg/mL | 4 µg/mL | 2 µg/mL | 1 µg/mL | 1 µg/mL | 0.125 µg/mL | 0.125 µg/mL | 0.06 µg/mL
8 | NC[C@@H]1CN[C@@H](COc2ccc3ccccc3n2)C1 [Compound M71, (2R,4R)-4-(Aminomethyl)-2 (2-quiolyloxymethyl)pyrrolidne] | 4 µg/mL | 4 µg/mL | 4 µg/mL | 4 µg/mL | 4 µg/mL | 4 µg/mL | 2 µg/mL | 0.5 µg/mL
9 | Cc1ccc2ncc(C(=O)NC[C@H]3C[C@H](CN)CN3)cc2c1 [Compound M72, (2R,4R)-4-(Aminomethyl)-2-(6-methyl-3-quinolylcarboxamidomethyl)pyrrolidine] | 4 µg/mL | 4 µg/mL | 4 µg/mL | 4 µg/mL | 4 µg/mL | 4 µg/mL | 2 µg/mL | 0.5 µg/mL
10 | NCC(=O)N[C@H]1CN[C@H](c2nc3ccc(Cc4ccccc4)cc3[nH]2)C1 [Compound M73, (2S,4R)-4-(2-Aminoacetamido)-2-(5-benzyl-2-benzmidazolyl)pyrrolidine] | 4 µg/mL | 4 µg/mL | 4 µg/mL | – | – | – | – | –
